Measured values: patent US10647711B2, “Azepin-2-one derivatives as RSV inhibitors” (Enanta Pharmaceuticals, Inc., priority 2017, dated 2020)

Each compound was assayed on Human RSV-A (“Long” strain) (assay: RSV-A in vitro cytoprotection assay in HEp-2 cells (ATPlite readout)). Conditions: human respiratory syncytial virus, 96 h, 4-day incubation, ATPlite cell viability (CPE protection).
Assay type: cell-based
From the text: RSV is a single stranded negative sense RNA virus that causes respiratory tract infections which can be dangerous to infants, the elderly, and immunosuppressed individuals. Currently there is no vaccine, and therapeutic options are both costly and of limited effectiveness. These approved treatments are Ribavirin, and Palivizumab/Synagis (a monoclonal antibody). RSV has two genotypes, A and B, which differ primarily in the structure of the virus' surface “G” attachment protein. Our current primary screen focusses on RSV-A and uses an in vitro cytoprotection assay where compounds are added in 2-fold dilutions to cells which are then subjected to fully replicative viral particles. Cell viability is measured several days later along with separate measurements of compound cytotoxicity. This report focuses on the results of our most recent screening of compounds.
HEp-2 cells, (originally derived from tumors grown in irradiated-cortisonised weanling rats that had been injected with epidermoid carcinoma tissue from a person's larynx, but later found to be indistinguishable from HeLa cells by PCR DNA analysis), were used for the culturing of genotype A, “Long” strain RSV. Flasks were inoculated with RSV and viral stocks were collected once cytopathic effect (CPE) was greater than 90%. Viral stocks in 25% sucrose media were snap frozen using liquid nitrogen to increase viral stability. Viral stock titers were quantified by tissue culture infectious dose 50% (TCID50) using 8,000 cells per well and 3-fold viral dilutions across a 96-well plate, cultured for 4 days.
Following extensive parameter testing, the final assay is run as follows: HEp-2 cells are seeded into the inner 60 wells of a 96-well plate at 8,000 cells per well in a volume of 50 μL using Growth Media (DMEM without phenol red, 1% L-Glut, 1% Penn/Strep, 1% nonessential amino acids, 10% FBS). 2-fold serial dilutions of control and test compounds are added to the wells in duplicate in a total volume of 25 μL. Viral stock is then added to the wells in a volume of […] the total volume of each well to 100 μL. Each 96-well plate has a control column of 6 wells with cells and virus but no compound (negative control, max CPE), a column with cells but no compound or virus (positive control, minimum CPE), and a column with no cells or virus or compound (background plate/reagent control). The control wells with cells but no virus are given an additional 25 uL of growth media containing an equal quantity of sucrose as those wells receiving the viral stock in order to keep consistent in media and volume conditions. The outer wells of the plate are filled with 125 μL of growth media to act as a thermal and evaporative moat around the test wells. Following a 4-day incubation period, the plates are read using ATPlite (50 uL added per well), which quantifies the amount of ATP (a measure of cell health) present in each well. Assay plates are read using the Envision luminometer. […] EC50 ranges are as follows: A<1 μM; B 1-5 μM; C>5 μM.

SMILES | EC50
O=C1Nc2ccccc2C(c2ccccc2)=C[C@@H]1Nc1nnc(-c2ccc(F)cc2)o1 [Example 1, (S)-3-((5-(4-fluorophenyl)-1,3,4-oxadiazol-2-yl)amino)-5-phenyl-1,3-dihydro-2H-benzo[b]azepin-2-one] | 1000 to 5000 nM
O=C1Nc2ccccc2C(c2ccccc2)=C[C@@H]1Nc1nnc(-c2cn(-c3ccccn3)nc2N2CCOCC2)o1 [Example 2] | 1000 to 5000 nM
O=C1Nc2ccccc2C(c2ccccc2)=C[C@@H]1Nc1nnc(-c2ccc(N3CCOCC3)cc2F)o1 [Example 3] | 1000 to 5000 nM
O=C1Nc2ccccc2C(c2ccccc2)=C[C@@H]1Nc1nnc(-c2cccnc2N2CCOCC2)o1 [Example 4] | 1000 to 5000 nM
O=C1Nc2ccccc2C(c2ccccc2)=C[C@@H]1Nc1nnc(-c2ncc(C3CC3)cc2N2CCOCC2)o1 [Example 5] | < 1000 nM
C#Cc1cnc(-c2nnc(N[C@H]3C=C(c4ccccc4)c4ccccc4NC3=O)o2)c(N2CCOCC2)c1 [Example 6] | < 1000 nM
O=C1Nc2ccccc2C(c2ccccc2)=C[C@@H]1Nc1nnc(-c2ncc(Br)cc2N2CCOCC2)o1 [Example 7] | < 1000 nM
N#Cc1cnc(-c2nnc(N[C@H]3C=C(c4ccccc4)c4ccccc4NC3=O)o2)c(N2CCOCC2)c1 [Example 8] | < 1000 nM
O=C1Nc2ccccc2C(c2ccccc2)=C[C@@H]1Nc1nnc(-c2ncc(C3CCC3)cc2N2CCOCC2)o1 [Example 9] | 1000 to 5000 nM
O=C1Nc2ccccc2C(c2ccccc2)=C[C@@H]1Nc1nnc(-c2ncc(C(F)(F)F)cc2N2CCOCC2)o1 [Example 10] | < 1000 nM
O=C1Nc2ccccc2C(c2ccccc2)=C[C@@H]1Nc1nnc(-c2nc(C3CC3)sc2N2CCOCC2)o1 [Example 11, (S)-3-((5-(2-cyclopropyl-5-morpholinothiazol-4-yl)-1,3,4-oxadiazol-2-yl)amino)-5-phenyl-1,3-dihydro-2H-benzo[b]azepin-2-one] | < 1000 nM
O=C1Nc2ccccc2C(c2ccccc2)=C[C@H]1Nc1nnc(-c2nc(C3CC3)sc2N2CCOCC2)o1 [Example 12, (R)-3-((5-(2-cyclopropyl-5-morpholinothiazol-4-yl)-1,3,4-oxadiazol-2-yl)amino)-5-phenyl-1,3-dihydro-2H-benzo[b]azepin-2-one] | < 1000 nM
O=C1Nc2ccccc2C(c2ccccc2)=C[C@@H]1Nc1nnc(-c2nc(-c3cccnc3)sc2N2CCOCC2)o1 [Example 13, (S)-3-((5-(5-morpholino-2-(pyridin-3-yl)thiazol-4-yl)-1,3,4-oxadiazol-2-yl)amino)-5-phenyl-1,3-dihydro-2H-benzo[b]azepin-2-one] | < 1000 nM
O=C1Nc2ccccc2C(c2ccccc2)=C[C@H]1Nc1nnc(-c2nc(-c3cccnc3)sc2N2CCOCC2)o1 [Example 14, (R)-3-((5-(5-morpholino-2-(pyridin-3-yl)thiazol-4-yl)-1,3,4-oxadiazol-2-yl)amino)-5-phenyl-1,3-dihydro-2H-benzo[b]azepin-2-one] | 1000 to 5000 nM
O=C(Nc1ccccc1F)N[C@H]1C=C(c2ccccc2)c2ccccc2NC1=O [Example 15, (S)-1-(2-fluorophenyl)-3-(2-oxo-5-phenyl-2,3-dihydro-1H-benzo[b]azepin-3-yl)urea] | > 5000 nM
O=C1Nc2ccccc2C(c2ccccc2)=C[C@@H]1Nc1nc2ccccc2o1 [Example 16, (S)-3-(benzo[d]oxazol-2-ylamino)-5-phenyl-1,3-dihydro-2H-benzo[b]azepin-2-one] | > 5000 nM
O=C(N[C@H]1C=C(c2ccccc2)c2ccccc2NC1=O)c1ccccc1 [Example 17, (5)-N-(2-oxo-5-phenyl-2,3-dihydro-1H-benzo[b]azepin-3-yl)benzamide] | > 5000 nM
